Measured values: ChEMBL document CHEMBL3826900, “Inhibitors for the bacterial ectonucleotidase Lp1NTPDase from Legionella pneumophila” (Bioorg Med Chem, 2016)
Activity calls are given as the source filed them. The rule behind the calls is not given here.

Experiments:
[1] = tested on: Legionella pneumophila 130b; test: Inhibition of recombinant Legionella pneumophila 130b His6-tagged NTPDase (41 to 393 residues) expressed in Escherichia coli BL21(DE3) cells using ADP as substrate at 30 uM incubated for 10 mins by capillary electrophoresis method relative to control
[2] = Inhibition of recombinant Legionella pneumophila 130b His6-tagged NTPDase (41 to 393 residues) expressed in Escherichia coli BL21(DE3) cells using ADP as substrate incubated for 10 mins by capillary electrophoresis method
[3] = Inhibition of recombinant Legionella pneumophila 130b His6-tagged NTPDase (41 to 393 residues) expressed in Escherichia coli BL21(DE3) cells using ADP as substrate incubated for 10 mins by Cheng-Prusoff equation analysis
[4] = tested on: Legionella pneumophila 130b; test: Competitive inhibition of recombinant Legionella pneumophila 130b His6-tagged NTPDase (41 to 393 residues) expressed in Escherichia coli BL21(DE3) cells at 3 to 6 uM incubated for 10 mins in presence of varying levels of ADP by Lineweaver-Burk plot analysis
[5] = target: T1, Ectonucleoside triphosphate diphosphohydrolase 1 (Homo sapiens, UniProt P49961); test: Inhibition of recombinant human NTPDase1 expressed in CHO cells using ADP as substrate incubated for 10 mins by capillary electrophoresis method
T1 sequence (P49961 whole entry): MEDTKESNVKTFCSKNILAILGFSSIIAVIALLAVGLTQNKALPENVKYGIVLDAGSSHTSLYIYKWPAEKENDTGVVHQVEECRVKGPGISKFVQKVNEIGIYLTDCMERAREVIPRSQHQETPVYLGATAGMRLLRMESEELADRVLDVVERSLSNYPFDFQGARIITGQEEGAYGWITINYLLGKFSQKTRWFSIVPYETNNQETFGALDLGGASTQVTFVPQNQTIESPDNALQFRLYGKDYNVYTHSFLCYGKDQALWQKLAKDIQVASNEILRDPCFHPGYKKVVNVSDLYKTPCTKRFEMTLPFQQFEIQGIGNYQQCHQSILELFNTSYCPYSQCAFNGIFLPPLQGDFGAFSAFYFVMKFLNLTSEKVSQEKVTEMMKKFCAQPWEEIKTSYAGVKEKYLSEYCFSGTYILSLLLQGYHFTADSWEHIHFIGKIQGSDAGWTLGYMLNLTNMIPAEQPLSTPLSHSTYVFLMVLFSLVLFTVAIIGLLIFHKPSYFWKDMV

[6] = target: T2, Ectonucleoside triphosphate diphosphohydrolase 2 (Homo sapiens, UniProt Q9Y5L3); test: Inhibition of recombinant human NTPDase2 expressed in CHO cells using ADP as substrate incubated for 10 mins by capillary electrophoresis method
T2 sequence (Q9Y5L3 whole entry): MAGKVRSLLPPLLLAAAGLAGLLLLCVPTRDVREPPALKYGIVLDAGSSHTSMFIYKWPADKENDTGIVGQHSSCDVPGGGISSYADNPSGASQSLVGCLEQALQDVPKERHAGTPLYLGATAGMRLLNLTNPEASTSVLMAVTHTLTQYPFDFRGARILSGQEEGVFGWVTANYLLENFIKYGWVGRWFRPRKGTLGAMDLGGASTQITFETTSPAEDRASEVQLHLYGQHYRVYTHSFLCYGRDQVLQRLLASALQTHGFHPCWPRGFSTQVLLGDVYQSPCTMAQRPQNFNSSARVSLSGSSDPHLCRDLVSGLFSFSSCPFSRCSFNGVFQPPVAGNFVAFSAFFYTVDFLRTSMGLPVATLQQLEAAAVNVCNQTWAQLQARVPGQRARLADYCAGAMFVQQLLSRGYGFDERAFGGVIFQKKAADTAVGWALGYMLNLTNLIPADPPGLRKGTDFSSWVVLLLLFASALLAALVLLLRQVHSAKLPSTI

[7] = target: T3, Ectonucleoside triphosphate diphosphohydrolase 3 (Homo sapiens) (UniProt O75355); test: Inhibition of recombinant human NTPDase3 expressed in mouse NS0 cells using ADP as substrate at 30 uM incubated for 10 mins by capillary electrophoresis method relative to control
T3 sequence (whole entry): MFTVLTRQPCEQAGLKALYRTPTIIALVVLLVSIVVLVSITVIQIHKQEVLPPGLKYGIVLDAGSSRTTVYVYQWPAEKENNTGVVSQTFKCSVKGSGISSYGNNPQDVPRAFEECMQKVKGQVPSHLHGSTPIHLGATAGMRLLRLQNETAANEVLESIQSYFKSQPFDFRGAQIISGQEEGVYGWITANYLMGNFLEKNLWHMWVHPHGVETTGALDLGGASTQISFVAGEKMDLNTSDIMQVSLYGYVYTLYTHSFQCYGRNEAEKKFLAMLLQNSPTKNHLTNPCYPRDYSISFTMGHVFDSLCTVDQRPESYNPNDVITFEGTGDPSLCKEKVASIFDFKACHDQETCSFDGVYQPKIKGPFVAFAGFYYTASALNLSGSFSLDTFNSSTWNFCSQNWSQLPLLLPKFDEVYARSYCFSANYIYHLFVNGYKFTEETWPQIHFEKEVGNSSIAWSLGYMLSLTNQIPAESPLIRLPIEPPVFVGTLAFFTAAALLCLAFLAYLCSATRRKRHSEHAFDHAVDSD

[8] = tested on: Legionella pneumophila 130b; settings: 3 uM
[9] = tested on: Legionella pneumophila 130b; settings: 6 uM
[10] = tested on: Legionella pneumophila 130b; settings: 3 uM; remark: listed apart in the source
[11] = tested on: Legionella pneumophila 130b; settings: 6 uM; remark: listed apart in the source
[12] = Inhibition of Legionella pneumophila NTPDase

Row | Compound | inhibition [1] | other results
1 | Nc1c(S(=O)(=O)O)cc(Nc2ccc(Nc3nc(Cl)nc(Cl)n3)c(S(=O)(=O)O)c2)c2c1C(=O)c1ccccc1C2=O | 8% | 
2 | Nc1c(S(=O)(=O)O)cc(Nc2ccccc2)c2c1C(=O)c1ccccc1C2=O | 31% | 
3 | CCCNc1cc(S(=O)(=O)O)c(N)c2c1C(=O)c1ccccc1C2=O | inactive | 
4 | Cc1cccc(Nc2cc(S(=O)(=O)O)c(N)c3c2C(=O)c2ccccc2C3=O)c1 | 53% | 
5 | Nc1c(S(=O)(=O)O)cc(Nc2ccc(Nc3nc(Cl)nc(Nc4ccccc4S(=O)(=O)O)n3)c(S(=O)(=O)O)c2)c2c1C(=O)c1ccccc1C2=O | 45% | 
6 | Nc1c(S(=O)(=O)O)cc(Nc2cc3ccccc3c3ccccc23)c2c1C(=O)c1ccccc1C2=O | 90% | IC50 [2]: 4.24 µM; Ki [3]: 2.99 µM; inhibition [4]: Active; IC50 [5]: 20 µM; IC50 [6]: 3 µM; inhibition [7]: 18%; Km [8]: 623 µM; Km [9]: 710 µM; Vmax [10]: 327 µmol/min/mg; Vmax [11]: 272 µmol/min/mg
7 | Nc1c(S(=O)(=O)O)cc(NC2CCCCC2)c2c1C(=O)c1ccccc1C2=O | 22% | 
8 | Nc1c(S(=O)(=O)O)cc(Nc2ccc3cc(C(=O)O)ccc3c2)c2c1C(=O)c1ccccc1C2=O | 32% | 
9 | Cc1cc(C)c(Nc2cc(S(=O)(=O)O)c(N)c3c2C(=O)c2ccccc2C3=O)c(C)c1 | 44% | 
10 | CCOP(=O)(Cc1ccc(Nc2cc(S(=O)(=O)O)c(N)c3c2C(=O)c2ccccc2C3=O)cc1)OCC | inactive | 
11 | COc1ccccc1Oc1ccc(Nc2cc(S(=O)(=O)O)c(N)c3c2C(=O)c2ccccc2C3=O)cc1 | 28% | 
12 | Nc1c(S(=O)(=O)O)cc(Nc2cccc3c(S(=O)(=O)O)cccc23)c2c1C(=O)c1ccccc1C2=O | 26% | 
13 | Nc1c(S(=O)(=O)O)cc(Nc2ccc3ccccc3c2)c2c1C(=O)c1ccccc1C2=O | 51% | 
14 | CCN(CC)c1ncnc2c1ncn2[C@@H]1O[C@H](COP(=O)(O)OP(=O)(O)OC(Br)(Br)P(=O)(O)O)[C@@H](O)[C@H]1O |  | Ki [12]: 500 µM
15 | Nc1c(S(=O)(=O)O)cc(Nc2ccccc2F)c2c1C(=O)c1ccccc1C2=O | inactive | 
16 | Nc1c(S(=O)(=O)O)cc(Nc2cccc([N+](=O)[O-])c2)c2c1C(=O)c1ccccc1C2=O | 44% | 
17 | Nc1c(S(=O)(=O)O)cc(Nc2ccc(Cl)cc2)c2c1C(=O)c1ccccc1C2=O | 66% | IC50 [2]: 17.6 µM; Ki [3]: 12.4 µM
18 | Nc1c(S(=O)(=O)O)cc(Nc2cccc3cc(S(=O)(=O)O)ccc23)c2c1C(=O)c1ccccc1C2=O | 30% | 
19 | Nc1c(S(=O)(=O)O)cc(Nc2cccc3ccccc23)c2c1C(=O)c1ccccc1C2=O | 62% | IC50 [2]: 12.2 µM; Ki [3]: 8.59 µM
20 | Cc1ccc2ccccc2c1Nc1cc(S(=O)(=O)O)c(N)c2c1C(=O)c1ccccc1C2=O | 76% | IC50 [2]: 13.6 µM; Ki [3]: 9.58 µM
21 | Nc1c(S(=O)(=O)O)cc(NCCc2ccccc2)c2c1C(=O)c1ccccc1C2=O | inactive | 
22 | Nc1c(S(=O)(=O)O)cc(Nc2cccc(Br)c2)c2c1C(=O)c1ccccc1C2=O | 44% | 
23 | Cc1ccccc1Nc1cc(S(=O)(=O)O)c(N)c2c1C(=O)c1ccccc1C2=O | 44% | 
24 | CCc1ccccc1Nc1cc(S(=O)(=O)O)c(N)c2c1C(=O)c1ccccc1C2=O | 39% | 
